Source: patent US20250228855A1, “PYRAZINAMIDE COMPOUNDS” (The General Hospital Corporation, priority 2022, published 2025)
Structures can show the parent of a compound that is named as a salt. Where two headings read alike, the source gives them in different places.

What was measured:
PfcProRS = PfcProRS (Plasmodium falciparum, UniProt Q8I5R7); assay: TR-FRET ligand displacement assay with tracer MAT379, PfcProRS; type: binding
HsProRS = target: T1, HsProRS (Homo sapiens, UniProt P07814); assay: TR-FRET ligand displacement assay with tracer MAT379, HsProRS; type: binding
T1 sequence (P07814 1007-1512 limits assumed): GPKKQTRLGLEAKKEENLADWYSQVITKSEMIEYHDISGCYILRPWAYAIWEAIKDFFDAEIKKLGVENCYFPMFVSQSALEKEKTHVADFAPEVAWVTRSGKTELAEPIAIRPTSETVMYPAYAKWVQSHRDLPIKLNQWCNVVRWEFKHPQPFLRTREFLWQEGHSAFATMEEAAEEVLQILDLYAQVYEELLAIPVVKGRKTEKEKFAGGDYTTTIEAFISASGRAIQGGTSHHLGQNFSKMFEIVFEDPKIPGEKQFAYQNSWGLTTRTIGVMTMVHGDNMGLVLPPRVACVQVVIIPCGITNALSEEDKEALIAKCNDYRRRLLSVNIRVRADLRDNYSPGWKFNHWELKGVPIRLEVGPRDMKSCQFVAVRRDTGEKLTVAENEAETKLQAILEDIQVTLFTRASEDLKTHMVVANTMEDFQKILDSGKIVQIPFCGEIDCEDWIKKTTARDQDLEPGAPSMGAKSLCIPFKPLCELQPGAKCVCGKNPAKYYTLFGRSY

P. falciparum Dd2-2D4 = assay: P. falciparum asexual blood stage growth assay, wild-type Dd2-2D4; conditions: for EC50: DD2, 72 h, read-out: Dd2 (EC50 [nM]) wt
Protocol: Asexual blood stage (ABS) P. falciparum parasites were treated with test compounds at varying concentrations for 72 h, followed by quantification of parasite growth by SYBR Green staining.
P. falciparum Asexual Blood Stage Growth Assay: This assay was performed as previously described.

[1] = PfcProRS (KD [nM]) +proline, 100 μM Pro
[2] = no proline, no ATP, read-out: PfcProRS (KD [nM]) −
[3] = no proline, no ATP, read-out: HsProRS (KD [nM]) −
[4] = read-out: HsProRS (KD [nM]) +proline, 100 μM Pro
[5] = read-out: PfcProRS (KD [nM]) +proline, 100 μM Pro

PfcProRS, sequence (Q8I5R7 whole entry): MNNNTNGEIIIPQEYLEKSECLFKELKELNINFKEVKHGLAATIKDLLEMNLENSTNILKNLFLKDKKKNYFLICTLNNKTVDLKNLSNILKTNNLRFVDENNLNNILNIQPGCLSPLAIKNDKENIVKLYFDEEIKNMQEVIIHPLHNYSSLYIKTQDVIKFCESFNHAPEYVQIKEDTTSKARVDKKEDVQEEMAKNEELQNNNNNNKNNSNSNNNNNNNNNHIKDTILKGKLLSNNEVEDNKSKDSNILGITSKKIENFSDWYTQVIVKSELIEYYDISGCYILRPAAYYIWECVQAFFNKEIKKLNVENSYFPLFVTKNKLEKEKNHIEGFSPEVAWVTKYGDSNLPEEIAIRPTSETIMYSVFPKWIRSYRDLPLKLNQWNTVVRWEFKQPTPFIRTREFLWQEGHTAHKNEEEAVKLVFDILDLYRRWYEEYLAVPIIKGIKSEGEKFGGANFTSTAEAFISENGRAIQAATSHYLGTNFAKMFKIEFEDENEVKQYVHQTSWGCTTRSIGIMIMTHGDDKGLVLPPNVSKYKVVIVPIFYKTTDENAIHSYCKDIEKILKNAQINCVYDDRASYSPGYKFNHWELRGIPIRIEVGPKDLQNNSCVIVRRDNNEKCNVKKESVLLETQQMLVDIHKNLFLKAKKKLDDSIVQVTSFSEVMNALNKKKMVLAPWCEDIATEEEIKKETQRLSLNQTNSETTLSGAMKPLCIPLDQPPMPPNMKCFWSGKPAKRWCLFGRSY

Row | SMILES | Kd (PfcProRS; [1]) [nM] | Kd (PfcProRS; [2]) [nM] | Kd (HsProRS) [nM] | Kd (HsProRS; [3]) [nM] | EC50 (P. falciparum Dd2-2D4; Plasmodium falciparum) [nM] | Kd (HsProRS; [4]) [nM] | other results
1 | CC(C)(C)OC(=O)N1CCN(C(=O)Nc2nccnc2C(=O)NC2Cc3ccccc3C2)CC1 [Compound 13, tert-butyl 4-((3-((2,3-dihydro-1H-inden-2-yl)carbamoyl)pyrazin-2-yl)carbamoyl)piperazine-1-carboxylate] | > 2180 | > 2860 | > 5090 | > 8720 |  |  | 
2 | NC(=O)Nc1nccnc1C(=O)NC1Cc2ccccc2C1 [Compound 23, N-(2,3-dihydro-1H-inden-2-yl)-3-ureidopyrazine-2-carboxamide] | > 2180 | > 2860 | > 5090 | > 8720 | 12100 |  | 
3 | O=C(NS(=O)(=O)N1CCN(C(=O)Nc2nccnc2C(=O)NC2Cc3ccccc3C2)CC1)OCCn1cnc2ccccc2c1=O [MAT512, 2-(4-oxoquinazolin-3(4H)-yl)ethyl ((4-((3-((2,3-dihydro-1H-inden-2-yl)carbamoyl)pyrazin-2-yl)carbamoyl)piperazin-1-yl)sulfonyl)carbamate] |  |  |  |  | > 10000 |  | 
4 | CC(C)(C)OC(=O)NC1CCN(C(=O)Nc2nccnc2C(=O)NC2Cc3ccccc3C2)CC1 [Compound 7, tert-butyl (1-((3-((2,3-dihydro-1H-inden-2-yl)carbamoyl)pyrazin-2-yl)carbamoyl)piperidin-4-yl)carbamate] |  |  |  | 22.1 |  | 34.8 | 
5 | O=C(C[C@@H]1NCCC[C@@H]1OC(=O)NS(=O)(=O)N1CCN(C(=O)Nc2nccnc2C(=O)NC2Cc3ccccc3C2)CC1)Cn1cnc2cc(Br)c(Cl)cc2c1=O (relative stereo) [iso-MAT436(40), cis-2-(3-(7-bromo-6-chloro-4-oxoquinazolin-3(4H)-yl)-2-oxopropyl)piperidin-3-yl ((4-((3-((2,3-dihydro-1H-inden-2-yl)carbamoyl)pyrazin-2-yl)carbamoyl)piperazin-1-yl)sulfonyl)carbamate] |  |  |  |  |  | 20.8 | fold less active than MAT436 against ABS P. falciparum (P. falciparum Dd2-2D4): 3 fold; fold lower affinity / reduced biochemical potency relative to MAT436 (PfcProRS): ~10 fold; fold lower affinity / reduced biochemical potency relative to MAT436 (PfcProRS; listed as 40): 5-10 fold
6 | O=C(NS(=O)(=O)NC1CCN(C(=O)Nc2nccnc2C(=O)NC2Cc3ccccc3C2)CC1)OCCn1cnc2ccccc2c1=O [MAT513, 2-(4-oxoquinazolin-3(4H)-yl)ethyl (N-(1-((3-((2,3-dihydro-1H-inden-2-yl)carbamoyl)pyrazin-2-yl)carbamoyl)piperidin-4-yl)sulfamoyl)carbamate] |  |  |  |  | 4830 |  | IC50 (P. falciparum Dd2-2D4; Plasmodium falciparum, DD2, read-out: IC50 for Dd2-2D4): 4830 nM; Kd (PfcProRS; absence of proline, read-out: KD for PfcProRS): 20.3 nM; Kd (HsProRS; absence of proline, read-out: KD for HsProRS): 157 nM
7 | CC(C)(C)OC(=O)NC1(C(=O)Nc2nccnc2C(=O)NC2Cc3ccccc3C2)CCCCC1 [Compound 16, tert-butyl (1-((3-((2,3-dihydro-1H-inden-2-yl)carbamoyl)pyrazin-2-yl)carbamoyl)cyclohexyl)carbamate] | > 2180 | > 2860 | > 5090 | > 8720 | 6110 |  | 
8 | NC1CCN(C(=O)Nc2nccnc2C(=O)NC2Cc3ccccc3C2)CC1 [Compound 8, 3-(4-aminopiperidine-1-carboxamido)-N-(2,3-dihydro-1H-inden-2-yl)pyrazine-2-carboxamide dihydrochloride] | > 2180 | > 2860 | > 5090 |  |  |  | Kd (HsProRS; HsProRS (KD [nM]) −): > 8720 nM
9 | O=C(NC1Cc2ccccc2C1)c1nccnc1NS(=O)(=O)C1CCCCC1 [Compound 50, 3-(cyclohexanesulfonamido)-N-(2,3-dihydro-1H-inden-2-yl)pyrazine-2-carboxamide] | > 2180 | > 2860 | > 5090 | > 8720 | 13000 |  | 
10 | NCC1CCN(C(=O)Nc2nccnc2C(=O)NC2Cc3ccccc3C2)CC1 [Compound 10, 3-(4-(aminomethyl)piperidine-1-carboxamido)-N-(2,3-dihydro-1H-inden-2-yl)pyrazine-2-carboxamide dihydrochloride] | > 2180 | > 2860 |  |  |  | 1360 | Kd (HsProRS; HsProRS (KD [nM]) −): > 8720 nM
11 | O=C(NC1Cc2ccccc2C1)c1nccnc1NC(=O)N1CCNCC1 [Compound 14, N-(2,3-dihydro-1H-inden-2-yl)-3-(piperazine-1-carboxamido)pyrazine-2-carboxamide dihydrochloride] | 1630 | > 2860 |  |  |  | 347 | Kd (HsProRS; HsProRS (KD [nM]) −): > 8720 nM
12 | O=C(NC1Cc2ccccc2C1)c1nccnc1NC(=O)C1CCOCC1 [Compound 18, N-(2,3-dihydro-1H-inden-2-yl)-3-(tetrahydro-2H-pyran-4-carboxamido)pyrazine-2-carboxamide] | 1590 | > 2860 |  | 7400 | > 20000 | 225 | 
13 | O=c1[nH]c2nccnc2c(=O)n1C1Cc2ccccc2C1 [Compound 47, 3-(2,3-dihydro-1H-inden-2-yl)pteridine-2,4(1H,3H)-dione] | > 2180 | > 2860 |  | > 8720 | 11100 |  | 
14 | CC(C)N(C(=O)Nc1nccnc1C(=O)NC1Cc2ccccc2C1)C(C)C [Compound 5, N-(2,3-dihydro-1H-inden-2-yl)-3-(3,3-diisopropylureido)pyrazine-2-carboxamide] |  | > 2860 |  | > 8720 | > 10000 |  | 
15 | Nc1nccnc1C(=O)NC1Cc2ccccc2C1 [Compound 45, 3-amino-N-(2,3-dihydro-1H-inden-2-yl)pyrazine-2-carboxamide] | > 2180 | > 2860 | > 5090 | > 8720 | 13600 |  | 
16 | O=C(O)CCCC(=O)Nc1nccnc1C(=O)NC1Cc2ccccc2C1 [Compound 22, 5-((3-((2,3-dihydro-1H-inden-2-yl)carbamoyl)pyrazin-2-yl)amino)-5-oxopentanoic acid] | > 2180 | > 2860 | > 5090 | > 8720 | 12300 |  | 
17 | O=C(Nc1nccnc1C(=O)NC1Cc2ccccc2C1)c1ccccc1 [Compound 21, 3-benzamido-N-(2,3-dihydro-1H-inden-2-yl)pyrazine-2-carboxamide] | 1430 | > 2860 |  | 7830 | 9600 | 140 | 
18 | O=C(NC1CCCCC1)c1nccnc1NC(=O)C1Cc2ccccc2C1 [Compound 49, N-cyclohexyl-3-(2,3-dihydro-1H-indene-2-carboxamido)pyrazine-2-carboxamide] | > 2180 | > 2860 | > 5090 | > 8720 | 6800 |  | 
19 | NCCCCCC(=O)NCCCCCC(=O)NC1CCN(C(=O)Nc2nccnc2C(=O)NC2Cc3ccccc3C2)CC1 [MAT421] |  | 2280 |  | 2340 |  | 2260 | Kd (PfcProRS; [5]): 1960 nM
20 | O=C(CCCCCNC(=S)NC1CCCCC1)NC1CCN(C(=O)Nc2nccnc2C(=O)NC2Cc3ccccc3C2)CC1 [MAT483] |  | 198 |  | 1000 |  | 3020 | Kd (PfcProRS; [5]): 171 nM
21 | Nc1ncnc2c1ncn2[C@@H]1O[C@H](COS(=O)(=O)NC(=O)OC2CCCNC2CC(=O)Cn2cnc3cc(Br)c(Cl)cc3c2=O)[C@@H](O)[C@H]1O (stereo partly drawn) [MAT430, ((2R,3S,4R,5R)-5-(6-amino-9H-purin-9-yl)-3,4-dihydroxytetrahydrofuran-2-yl)methy ((((2S,3R)-2-(3-(7-bromo-6-chloro-4-oxoquinazolin-3(4H)-yl)-2-oxopropyl)piperidin-3-yl)oxy)carbonyl)sulfamate] |  | 5.01 |  | 18.4 |  |  | 
22 | CC(C)(C)OC(=O)NCCCCCC(=O)NCCCCCC(=O)NC1CCN(C(=O)Nc2nccnc2C(=O)NC2Cc3ccccc3C2)CC1 [MAT420] |  |  |  |  |  | 781 | Kd (PfcProRS; [5]): 332 nM; Kd (PfcProRS; read-out: PfcProRS (KD [nM]) −, no proline, no ATP): 292 nM; Kd (HsProRS; read-out: HsProRS (KD [nM]) −, no proline, no ATP): 415 nM
